# Source: the supplement of paper PMC10307832
# Experiments:
# Test in all cases: relative viability (nuclei count vs DMSO), 5 days (fraction); higher = more cells survive
# DM3189 + Phenformin = compound: C1CN(CCN1)C2=CC=C(C=C2)C3=CN4C(=C(C=N4)C5=CC=NC6=CC=CC=C56)N=C3 [DM3189] + N=C(N)NC(=N)NCCc1ccccc1 [Phenformin] (partner 250 µM)
# Method in brief: (§1)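 Relative viability divides the nuclei count in treated wells by that in vehicle wells. Lung cancer cell lines were seeded in 1536-well plates, dosed by pin tool the next day, and fixed and stained after 5 days in one step with final 0.05% Triton X-100, 1% formaldehyde and 1 ug/ml Hoechst. Dosing was a single drug or a fixed anchor-drug dose plus five library-drug doses (not always all listed) in √10 steps, and values are medians of duplicate plates imaged at 4×.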
# DM3189 + Pictilisib = compound: C1CN(CCN1)C2=CC=C(C=C2)C3=CN4C(=C(C=N4)C5=CC=NC6=CC=CC=C56)N=C3 [DM3189] + CS(=O)(=O)N1CCN(Cc2cc3nc(-c4cccc5[nH]ncc45)nc(N4CCOCC4)c3s2)CC1 [Pictilisib] (partner 1 µM)
# Method in brief: as §1
# DM3189 + Luminespib = compound: C1CN(CCN1)C2=CC=C(C=C2)C3=CN4C(=C(C=N4)C5=CC=NC6=CC=CC=C56)N=C3 [DM3189] + CCNC(=O)c1noc(-c2cc(C(C)C)c(O)cc2O)c1-c1ccc(CN2CCOCC2)cc1 [Luminespib] (partner 0.01 µM)
# Method in brief: as §1
# DM3189 + Crizotinib = compound: C1CN(CCN1)C2=CC=C(C=C2)C3=CN4C(=C(C=N4)C5=CC=NC6=CC=CC=C56)N=C3 [DM3189] + C[C@@H](Oc1cc(-c2cnn(C3CCNCC3)c2)cnc1N)c1c(Cl)ccc(F)c1Cl [Crizotinib] (partner 1 µM)
# Method in brief: as §1
# DM3189 + Linsitinib = compound: C1CN(CCN1)C2=CC=C(C=C2)C3=CN4C(=C(C=N4)C5=CC=NC6=CC=CC=C56)N=C3 [DM3189] + C[C@]1(O)C[C@@H](c2nc(-c3ccc4ccc(-c5ccccc5)nc4c3)c3c(N)nccn32)C1 [Linsitinib] (partner 1 µM)
# Method in brief: as §1
Cell Line,relative viability (DM3189 + Phenformin; first compound 0.08 µM),relative viability (DM3189 + Phenformin; first compound 0.253 µM),relative viability (DM3189 + Phenformin; first compound 0.8 µM),relative viability (DM3189 + Phenformin; first compound 2.53 µM),relative viability (DM3189 + Pictilisib; first compound 0.08 µM),relative viability (DM3189 + Pictilisib; first compound 0.253 µM),relative viability (DM3189 + Pictilisib; first compound 0.8 µM),relative viability (DM3189 + Pictilisib; first compound 2.53 µM),relative viability (DM3189 + Luminespib; first compound 0.08 µM),relative viability (DM3189 + Luminespib; first compound 0.253 µM),relative viability (DM3189 + Luminespib; first compound 0.8 µM),relative viability (DM3189 + Luminespib; first compound 2.53 µM),relative viability (DM3189 + Crizotinib; first compound 0.08 µM),relative viability (DM3189 + Crizotinib; first compound 0.253 µM),relative viability (DM3189 + Crizotinib; first compound 0.8 µM),relative viability (DM3189 + Crizotinib; first compound 2.53 µM),relative viability (DM3189 + Linsitinib; first compound 0.08 µM),relative viability (DM3189 + Linsitinib; first compound 0.253 µM),relative viability (DM3189 + Linsitinib; first compound 0.8 µM),relative viability (DM3189 + Linsitinib; first compound 2.53 µM)
UMC-11,0.348,0.321,0.349,0.356,0.836,0.795,0.764,0.702,1.01,0.986,0.882,0.685,0.499,0.477,0.538,0.414,1.09,0.986,1.03,0.959
HOP-62,0.691,0.722,0.6,0.682,0.86,0.562,0.572,0.836,0.981,0.905,0.774,1.01,1,0.866,0.939,0.75,1.05,0.901,0.98,1.03
NCI-H1993,0.473,0.481,0.527,0.566,,0.85,0.852,0.718,0.785,0.705,0.712,0.885,,0.846,0.744,0.991,,0.616,0.641,0.706
LCLC-103H,0.357,0.315,0.286,0.304,0.737,0.618,0.558,0.622,0.974,0.985,0.933,0.999,1.01,1.01,0.963,1.05,1.1,1.07,1.05,1.17
NCI-H1734,0.344,0.381,0.37,0.332,0.541,0.417,0.442,0.383,0.202,0.226,0.207,0.199,0.585,0.695,0.676,0.657,1.01,0.981,0.814,0.968
EKVX,0.251,0.224,0.218,0.242,0.483,0.429,0.413,0.446,0.96,0.874,0.908,0.962,0.952,0.918,0.925,0.896,0.896,1,0.717,0.993
HARA,0.515,0.42,0.391,0.568,0.645,0.362,0.288,0.35,0.865,0.784,0.55,1.15,0.991,0.992,0.917,1.21,1.2,0.853,0.997,1.31
EMC-BAC-2,0.554,0.495,0.456,0.436,0.587,0.538,0.507,0.54,1.24,1.07,1.06,1.25,0.8,0.71,0.686,0.773,0.848,0.8,0.82,0.827
PC-3 [JPC-3],0.475,0.467,0.471,0.467,0.871,0.71,0.669,0.75,0.725,0.705,0.694,0.512,1.05,1.04,1.04,1.12,0.975,0.91,0.972,1.06
NCI-H596,0.724,0.802,0.78,0.709,0.419,0.247,0.412,0.407,1.27,1.07,1.09,0.851,1.15,1.01,0.93,0.943,1.15,1.13,1.05,1.14
NCI-H1755,0.698,0.589,0.511,0.566,0.51,0.417,0.334,0.399,0.384,0.476,0.425,0.419,0.768,0.837,0.736,0.818,1.02,0.911,0.881,0.934
NCI-H2126,0.576,0.529,0.483,0.522,0.544,0.53,0.465,0.478,1.13,0.875,0.913,0.889,1.07,0.989,0.98,1.06,0.708,0.799,0.779,0.799
NCI-H2085,0.722,0.72,0.633,0.75,0.379,0.473,0.393,0.409,0.359,0.389,0.478,0.951,0.941,0.807,0.872,0.752,0.932,0.858,0.973,0.946
CAL-12T,0.588,0.571,0.526,0.703,0.43,0.321,0.575,0.544,0.375,0.499,0.454,0.217,0.508,0.658,0.704,0.543,0.714,0.823,0.925,0.884
NCI-H2087,0.457,0.495,0.437,0.418,1.06,0.808,0.675,0.818,0.187,0.145,0.139,0.176,0.894,0.695,0.788,0.79,1.06,0.909,1.11,0.969
NCI-H661,0.268,0.271,0.268,0.281,0.44,0.453,0.509,0.389,1.07,0.922,0.959,0.78,1,1.01,0.949,1.08,0.606,0.675,0.734,0.747
